Values quoted from earlier work in patent US20070259016A1, “Method of treating crops with submicron chlorothalonil” (priority 2006, published 2007).

Experiments:
[1] = at 170 C.
[2] = acid and neutral aqueous preparations

## N#Cc1c(Cl)c(Cl)c(Cl)c(C#N)c1Cl [chlorothalonil, 2,4,5,6-tetrachloro-1,3-dicyanobenzene]
[1]
  volatility: 9.2 mmHg
[2]
  stability in aqueous preparations: relatively stable
Acetone and xylene
  solubility in acetone and xylene: slightly soluble
water
  solubility in water: 0.6-1.2 ppm
